According to US12201613B2 (priority 2020, dated 2025):

Experiments:
[1] = tested on: SARS-CoV-2 (SARS-CoV-2/human/TWN/CGMH-CGU-01/2020); format: cell-based
[2] = tested on: lysozyme-coated Pd-NTF electrodes; experiment: Binding selectivity of S-protein to lysozyme-coated Pd-NTF electrode (EIS); details: presence of peptide analogue
Source text: (iii) lysozyme-coated Pd-electrode in the absence of peptide analogues; or […]

[3] = biological target: T1, SARS-CoV-2 S-protein-ACE2 binding (Homo sapiens, UniProt Q9BYF1, K631R); experiment: EIS-based biosensing platform (ACE2-Pd-NTFE): modulation of S-protein-ACE2 binding; design: species or system SARS-CoV-2; human; details: for suppression of S-protein-ACE2 interaction / maximum binding efficacy / ECmax S-protein (S-protein-ACE2 interaction at maximum S-protein concentration): 4 μg/mL ACEi; for suppression of S-protein-ACE2 interaction / maximum binding efficacy: at maximum S-protein concentration; for ECmax S-protein (S-protein-ACE2 interaction at maximum S-protein concentration): baseline 99.5%±11.0% (104.2%±4.8% for ramiprilat); for modulation effect on the S-protein-ACE2 binding: dose-dependent, 0.1 to 4 μg/mL
T1 construct: made in house

[4] = Binding selectivity of S-protein to plain Pd-NTF electrode (EIS); details: presence of peptide analogue

In the case of `C[C@H](CS)C(=O)N1CCC[C@H]1C(=O)O` [captopril], the “E gene RNA in the media increased by” value [1] is reported as 34.5%.

For `CCOC(=O)[C@H](CCc1ccccc1)N[C@@H](C)C(=O)N1CCC[C@H]1C(=O)O` [enalapril], the “E gene RNA in the media increased by” value [1] was 93.7%.

With `C[C@H](N[C@@H](CCc1ccccc1)C(=O)O)C(=O)N1CCC[C@H]1C(=O)O` [enalaprilat] the “E gene RNA in the media increased by” value [1] was 44.4%.

For `NCCCC[C@H](N[C@@H](CCc1ccccc1)C(=O)O)C(=O)N1CCC[C@H]1C(=O)O` [lisinopril], the “E gene RNA in the media increased by” value [1] was 54.2% and the “effect on binding patterns of S-protein to the lysozyme-coated Pd-NTF electrode” value [2] was “did not change the binding patterns”.

In the case of `CCC[C@H](N[C@@H](C)C(=O)N1[C@H](C(=O)O)C[C@@H]2CCCC[C@@H]21)C(=O)OCC` [perindopril], the “E gene RNA copies in the culture media reduced by” value [1] is reported as “approximately 18.8%”, the “suppression of S-protein-ACE2 interaction / maximum binding efficacy” value [3] is reported as “approximately 48%” and the “ECmax S-protein (S-protein-ACE2 interaction at maximum S-protein concentration)” value (from here on “ECmax S-protein”) [3] is reported as 51.9±5.3%. The “modulation effect on the S-protein-ACE2 binding” value (shortened to “modulation effect”) [3] was “dose-dependent and non-competitive inhibition”.

In the case of `CCC[C@H](N[C@@H](C)C(=O)N1[C@H](C(=O)O)C[C@@H]2CCCC[C@@H]21)C(=O)O` [perindoprilat], the “E gene RNA copies in the culture media reduced by” value [1] is reported as about 20.1%, the “effect on binding patterns of S-protein to the lysozyme-coated Pd-NTF electrode” value [2] is reported as “did not change the binding patterns” and the “suppression of S-protein-ACE2 interaction / maximum binding efficacy” value [3] is reported as 67%. The “ECmax S-protein” value [3] was 33.0±3.7%, the “modulation effect” value [3] was “antagonism effect is significantly enhanced” and the “effect on binding patterns of S-protein to the bare Pd-NTF electrode” value [4] was “did not change the binding patterns”.

For `CCOC(=O)[C@H](CCc1ccccc1)N[C@@H](C)C(=O)N1[C@H](C(=O)O)C[C@@H]2CCC[C@@H]21` [ramipril], the “E gene RNA copies in the culture media reduced by” value [1] was 39.3%, the “suppression of S-protein-ACE2 interaction / maximum binding efficacy” value [3] was “approximately 42%” and the “ECmax S-protein” value [3] was 57.1±11.4%. For the same compound, the “modulation effect” value [3] was “dose-dependent and non-competitive inhibition”.

In the case of `C[C@H](N[C@@H](CCc1ccccc1)C(=O)O)C(=O)N1[C@H](C(=O)O)C[C@@H]2CCC[C@@H]21` [ramiprilat], the “E gene RNA copies in the culture media reduced by” value [1] is reported as 36.4%, the “effect on S-protein-ACE2 binding at highest dose” value ([3]; 4 μg/mL) is reported as “Near full inhibition” and the “suppression of S-protein-ACE2 interaction / maximum binding efficacy” value [3] is reported as 72%. For the same compound, the “ECmax S-protein” value [3] was 27.6±7.5% and the “modulation effect” value [3] was “antagonism effect is significantly enhanced”.
